Patent US20080260774A1, “Alpha-galactosyl ceramide analogs and their use as immunotherapies” (priority 2007, published 2008)
“Also recorded” adds a separate entry of the source.

Tests used:
[1] = test system: Sphingomonas capsulata; test: Antibacterial efficacy in Sphingomonas capsulata infected mice; format: in vivo, mouse
Description: Sphingomonas capsulata is a common environmental bacterial strain that is found in many places such as the air and water. It can be easily identified on nutrient agar plates because of its yellow colony color. […] Since the antibacterial activities of glycolipid antigens are mediated through the activation of NKT cells by glycolipid bound-CD1-d molecules, evaluation of the antibacterial efficacies using the disease model of Sphingomonas capsulata infection will focus on the impact of the NKT mediated pathway that is activated by glycolipid bindings. Six to eight week old female C57BL/6 mice were injected IP with Sphingomonas capsulate cells. […] Twenty-four hours after bacterial infection, livers were removed from mice and homogenized. Colony formation units (CFU) of Sphingomonas capsulate in liver homogenates were determined by plating diluted samples on nutrient plates. Colonies were counted after incubation for 48 hours at 37° C. […] To confirm the antibacterial efficacies of these α-GalCer analogs, another study was conducted to repeat the study by treating infected mice with 50 μg/kg in the same disease model. […] Six to eight week old female C57BL/6 mice were injected IP with 5×10^8 Sphingomonas capsulate cells. Mice were grouped into treatment and control groups with 4-6 mice per group. Four hours after the infection, mice in the treatment group were injected IP with testing α-GalCer analogs at 50 or 100 μg/kg, and the control group mice were injected with same volumes of PBS. Twenty-four hours after bacterial infection, mice from all groups were sacrificed. Livers were removed from mice and homogenized in 0.9% NaCl, 0.02% Tween 80 using tissue homogenizers. Colony formation units (CFU) of Sphingomonas capsulate in liver homogenates were determined by plating diluted samples on nutrient plates. Colonies were counted after incubation for 48 hours at 37° C.

[2] = test system: syngeneic breast cancer (4T1); test: Breast cancer model in mice (4T1, SubQ inoculation); format: in vivo, mouse; details: mice bearing breast cancer
[3] = test system: naïve CD161^+/CD3^+ NKTs; test: Human NKT TCR activation (phosphoproteins), glycolipid presented by HeLa, HeLa-CD1d or iDCs, 10 μg/ml; format: cell-based; details: 10 μg/ml
[4] = test system: H5 of avian influenza viruses (pHA); format: in vivo, mouse
[5] = test system: tumor metastasis; details: mice; cited from earlier work
[6] = test system: Klebsiella pneumoniae; test: Antibacterial efficacy in K. pneumoniae infected mice; format: in vivo, mouse; details: 100 μg/kg twice at 4-hour and 8-hour after infection
Experimental: K. pneumoniae is a Gram negative bacterium that causes liver abscess and is becoming a serious disease in Taiwan among diabetic patients. […] BALB/cByl female mice were administered a single dose of live K. pneumoniae by oral gavage. […] Twenty four hours after infection, both the liver and lungs were collected from each mouse, and homogenized. Bacterial counts were determined similarly as described above. BALB/c-Byl female mice (ten mice per group) were administered a single dose (10^6 CFU) of live-K. pneumoniae by oral gavage. Mice in the treatment groups were injected with testing α-GalCer analogs at 100 μg/kg twice at 4-hour and 8-hour after bacterial infection. Mice in the control group were injected with PBS at 4- and 8-hour. Twenty four hours after infection, all mice were sacrificed. Both livers and lungs were collected from each mouse, and homogenized. Bacterial counts were determined similarly as described above.

[7] = test system: BALB/c mice; test: Mouse serum cytokines/chemokines after IV, SubQ or IM injection; format: in vivo; details: IV route
[8] = test system: C57BL/6 mice; test: Expansion of NKT subsets in spleens of C57BL/6 mice; format: in vivo; details: C57BL/6 Wt, 72 h post IV injection, 0.1 μg per mouse
[9] = format: in vivo, mouse; details: two weeks after the third vaccination
Experimental: BALB/c mice were injected IM with globo H-DT/α-GalCer or globo H-DT/α-GalCer analogs three times at two weeks interval. Sera was collected two weeks after the third vaccination and tested for IgG and IgM anti-globo H-specific antibody at 1:480 and 1:240 dilution, respectively, using a glycan microarray.

[10] = test system: syngeneic lung cancer (TC1) cells; test: Lung cancer model in mice (TC1, IV inoculation); format: in vivo, mouse; details: IV administration
[11] = test system: human naïve NKTs (CD161^+CD3^+); test: Cytokine/chemokine secretion by human naïve CD161+CD3+ NKTs co-cultured with autologous immature CD14+ DCs; format: cell-based; details: normalized to DMSO control
[12] = test system: mycobacterium tuberculosis, Pseudomonas aeruginosa; details: in vivo; cited from earlier work
[13] = test system: mouse spleen cells; details: in vitro stimulation; cited from earlier work
[14] = test system: tetanus toxoid (TT); details: mouse, in vivo
[15] = test system: advanced cancers; details: cited from earlier work
[16] = test system: FLU-A virus serotype H1N1 (WSN); test: Cytopathetic effect / virus titer in MDCK cells infected with H1N1 (WSN); format: cell-based; details: pretreated at 10 μg/ml for four hours; 10TCID50; 48 hours post-infection
Experimental: FIG. 60(A-B) show the cytopathetic effect (CPE) of Madin-Darby canine kidney (MDCK) cells in vitro. MDCK cells were pretreated with vehicle, α-GalCer or one of the α-GalCer analogs C13, C14 or C16 at 10 μg/ml for four hours, followed by infection with FLU-A virus serotype H1N1 (WSN) at 10TCID50.
BALB/c mice were treated via intranasal route with control, α-GalCer (C1) or the α-GalCer analogs C13, C14 or C16 at one hour prior to virus challenge with H1N1 (WSN). […] In general, certain α-GalCer analogs may exert direct anti-viral effects, or act indirectly via immune stimulation. […] MDCK cells were pretreated with vehicle, α-GalCer or one of the α-GalCer analogs C13, C14 or C16 at 10 μg/ml for four hours, followed by infection with FLU-A virus serotype H1N1 (WSN) at 10TCID50.

[17] = test system: BALB/c mice; test: Expansion/activation of mouse splenocyte subpopulations 72 h after injection; format: in vivo

CCCCCCCCCCCCCCCCCCCCCCCCCC(=O)N[C@@H](CO[C@H]1O[C@H](CO)[C@H](O)[C@H](O)[C@H]1O)[C@H](O)[C@H](O)CCCCCCCCCCCCCC [C1, α-Galactosyl ceramide, reference compound]
difference in the values of the CFU per gram liver among efficacious groups ([1]; 50 μg/kg): not statistically significant | CFU numbers in liver ([1]; 100 μg/kg IP, 24 hour after bacterial infection): significantly lower than the control group | effect of route of administration (SubQ vs IV) on anti-tumor efficacy [2]: more effective than IV delivery in prolonging the survival of mice bearing breast cancer; also recorded: statistically better efficacy with SubQ delivery over IV route | intracellular phospho-CD3ε ([3]; presented by DCs): 10.8 folds | intracellular phospho-CD3ε ([3]; presented by HeLa-CD1d cells): 7.3 folds of control | phospho-ERK1/2 ([3]; with DCs): 30 folds | phospho-ERK1/2 ([3]; with HeLa-CD1d cells): 6.6 folds increase | adjuvant activities in enhancing the anti-HAc antibody titer ([4]; 0.2 μg pHAc): better adjuvant activities than the others in enhancing the antibody titer | anti-H5 responses ([4]; 5-45 μg H5 DNA vaccine, three weeks after first immunization): enhanced by α-GalCer at 5-30 μg H5 DNA, but reached a plateau at 45 μg | adjuvant effect on anti-H5 titers ([4]; H5 DNA dose 0.2-5 μg, two weeks after second immunization): evident for all low dosages tested | anti-HA-specific IgG antibody ([4]; three weeks after one dose immunization): enhanced | tumor metastasis [5]: suppress tumor metastasis to liver, lung and lymph nodes | bacterial loads in mouse lung and liver [6]: significantly reduce the bacterial loads in mouse lung and liver | IFN-γ/IL-4 ratio (TH1/TH2 bias) ([7]; 2 hours, compared with C1): less TH2 responses than C1 | serum level of IFN-γ ([7]; over 72 hours): highest level of IFN-γ when given IV | total number of NKTs and its two subtypes NKT1 and NKT2 [8]: increase of total number of NKTs | anti-globo H IgM antibody ([9]; 1:240 dilution): not in C1 treated group | anti-globo H IgG antibody ([9]; 1:480 dilution): elicited significant IgG antibody production | anti-cancer efficacy compared with C1 [10]: significantly greater anti-cancer efficacy than C1 | IFN/IL-4 ratio (TH1/TH2 bias) [11]: more TH2-biased | antibacterial activities [12]: amelioration of mycobacterium tuberculosis infections, clearance of lung infection by Pseudomonas aeruginosa | NKT proliferation and cytokine production [13]: proliferation of NKTs and production of both IFN-[…] and IL-4 | antibody production compared with Alum [14]: significantly greater antibody production than Alum | antibody response relative to conventional vaccine [14]: ~2 fold | level of antibody after delayed boost compared with TT+Alum [14]: twice as high as those given TT+Alum | toxicity ([15]; human, in vivo): without any toxicity | clinical anti-tumor outcome ([15]; α-GalCer or α-GalCer-loaded iDCs, phase I): no durable tumor regression, stable disease was noted in several patients | entry/replication of H1N1 virus (virus titer) [16]: slight inhibition of the entry/replication of H1N1 virus in vitro | B cell expansion ([17]; FIGS. 26E, 28E and 30E): more active than C1 | CD8^+ T cell expansion/activation ([17]; FIGS. 26F, 28F and 30F): more active than C1 | B cell expansion/activation ([17]; SubQ route): significant activities | CD4^+ T cells ([17]; SubQ route): most effective; also recorded: more active over control
